We go through three compounds from PMC6797648 (Targeted Oncology, 2019).

Each structure is given as a SMILES string. Values joined by “and” are separate entries in the source; they are usually repeats but may differ in a detail not shown here. Equal values may be shown once. A value given as a limit tells only on which side of the number the result lay.

A short description of data set [1]: Plasma and tissue distribution in A20 syngeneic model. Type of data set: in vivo, BALB/c mice. To be noted: for Tumor concentration, times higher than plasma concentration: 4 h after the last dose.
In data set [2] the target is PIK3CD/PIK3R1 (Homo sapiens, UniProt O00329). Briefly: Purified enzyme-binding kinetics.
PIK3CD/PIK3R1, sequence (O00329 whole entry): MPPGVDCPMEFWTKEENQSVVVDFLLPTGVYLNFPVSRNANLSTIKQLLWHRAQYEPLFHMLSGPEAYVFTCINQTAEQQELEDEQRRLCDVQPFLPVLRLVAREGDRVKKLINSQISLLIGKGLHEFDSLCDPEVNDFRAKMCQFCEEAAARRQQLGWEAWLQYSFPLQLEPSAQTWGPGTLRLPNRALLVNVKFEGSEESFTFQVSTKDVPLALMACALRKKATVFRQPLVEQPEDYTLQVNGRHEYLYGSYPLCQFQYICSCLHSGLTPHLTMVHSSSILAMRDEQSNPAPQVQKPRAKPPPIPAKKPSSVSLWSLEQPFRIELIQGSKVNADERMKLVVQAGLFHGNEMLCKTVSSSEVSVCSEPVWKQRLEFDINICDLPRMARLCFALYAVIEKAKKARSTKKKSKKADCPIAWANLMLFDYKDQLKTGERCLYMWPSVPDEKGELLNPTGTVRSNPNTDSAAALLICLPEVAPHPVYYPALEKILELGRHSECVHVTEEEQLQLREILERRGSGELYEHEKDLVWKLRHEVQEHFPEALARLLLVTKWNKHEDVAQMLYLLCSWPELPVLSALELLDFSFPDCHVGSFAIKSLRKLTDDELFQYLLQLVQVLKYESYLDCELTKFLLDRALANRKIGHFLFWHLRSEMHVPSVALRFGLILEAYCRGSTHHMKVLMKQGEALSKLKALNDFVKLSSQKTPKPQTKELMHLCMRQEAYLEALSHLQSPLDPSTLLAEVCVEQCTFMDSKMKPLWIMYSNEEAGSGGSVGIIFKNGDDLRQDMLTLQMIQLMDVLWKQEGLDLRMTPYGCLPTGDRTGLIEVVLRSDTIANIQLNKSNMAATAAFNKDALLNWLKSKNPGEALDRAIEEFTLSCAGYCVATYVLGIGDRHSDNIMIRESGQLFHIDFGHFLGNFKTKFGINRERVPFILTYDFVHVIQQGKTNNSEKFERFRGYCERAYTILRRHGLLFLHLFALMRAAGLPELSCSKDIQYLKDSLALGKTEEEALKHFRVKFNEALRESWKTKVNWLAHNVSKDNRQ
PIK3CD/PIK3R1, sequence (P27986 whole entry partner): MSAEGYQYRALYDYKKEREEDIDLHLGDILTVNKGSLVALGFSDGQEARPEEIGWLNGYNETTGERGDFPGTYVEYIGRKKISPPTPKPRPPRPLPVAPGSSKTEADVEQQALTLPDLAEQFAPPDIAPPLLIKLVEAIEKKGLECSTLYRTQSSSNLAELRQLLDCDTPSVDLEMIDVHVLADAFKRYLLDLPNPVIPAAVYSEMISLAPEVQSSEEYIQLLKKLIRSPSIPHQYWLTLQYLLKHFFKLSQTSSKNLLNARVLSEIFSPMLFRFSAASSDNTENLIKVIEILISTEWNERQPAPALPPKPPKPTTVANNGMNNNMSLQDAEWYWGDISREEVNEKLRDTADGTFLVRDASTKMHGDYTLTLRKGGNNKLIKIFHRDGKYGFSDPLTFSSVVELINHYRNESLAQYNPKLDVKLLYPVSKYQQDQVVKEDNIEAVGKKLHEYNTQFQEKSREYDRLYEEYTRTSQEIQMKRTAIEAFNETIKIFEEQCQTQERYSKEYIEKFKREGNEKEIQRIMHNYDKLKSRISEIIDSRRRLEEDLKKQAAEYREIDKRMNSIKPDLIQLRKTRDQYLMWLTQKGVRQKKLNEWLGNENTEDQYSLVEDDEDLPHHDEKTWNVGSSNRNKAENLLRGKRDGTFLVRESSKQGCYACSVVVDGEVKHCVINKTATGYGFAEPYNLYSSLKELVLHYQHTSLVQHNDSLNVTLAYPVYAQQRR
Data set [3] is described as follows: Caco-2 permeability and percent recovery. Conditions: human, Caco-2, pH 7.4. A general note: Caco-2 cells form a polarised layer with tight junctions and transporters.
Data set [4] in a line: Allometric scaling of VSS to a hypothetical 60-kg human.
The conditions of data set [5]: healthy volunteers, oral; cited from earlier work.
The nature of data set [6]: Single-dose oral and IV pharmacokinetics in beagle dogs. Type of data set: in vivo, beagle dog.
For data set [7], the system named is Caco-2 cell monolayer. In words: Caco-2 permeability and percent recovery.
For data set [8], the system named is peripheral blood basophils. To be noted: healthy volunteers, oral administration, CD63 expression following ex vivo stimulation; cited from earlier work.
In data set [9] the target is purified PI3Kδ enzyme. To be noted: read-out: IC50, inhibition of purified PI3Kδ enzyme; cited from earlier work.
The nature of data set [10]: Blood to plasma ratio in human whole blood. The format is in vitro ADME. To be noted: from the human B:P of 1.4.
The subject of data set [11] is PI3Kδ. Conditions: read-out: IC50, inhibition of PI3Kδ in cellular assays; cited from earlier work.
Setting [12] is: 50 mg/kg twice daily for 4 days.
The mark [13] stands for this setting: 1 µM, Caco-2, apical to basolateral.
Setting [14] is: 1 µM, Caco-2, basolateral to apical.
[15] abbreviates: ME-401 versus idelalisib, in vitro.

Consider `CC[C@H](Nc1ncnc2[nH]cnc12)c1nc2cccc(F)c2c(=O)n1-c1ccccc1` [Idelalisib, idelalisib, reference compound], for which, in data set [1] (setting [12]), the “Tumor concentration, times higher than plasma concentration” value (from here on “Tumor concentration”) is recorded as “approximately three times higher”. Also, in data set [2] (idelalisib versus ME-401), the “Dissociation rate, times higher than ME-401” value is ~ 100 times.

Regarding `CC(C)NCC(O)COc1cccc2ccccc12` (stereo not drawn) [propranolol, reference compound], the Papp at 2 h, 10 uM in [3] was over 30 ×10⁻⁶ cm/s.

As to `CN1CCC(c2ccccc2CC(C)(C)Nc2nc(N3CCOCC3)nc(-n3c(C(F)F)nc4ccccc43)n2)CC1` [ME-401], the “Tumor concentration” value in data set [1] (setting [12]) is given as “approximately 20 times”. Moreover, the “Brain tissue concentration as percent of plasma values” in data set [1] (75 mg/kg twice daily for 4 days, 4 and 24 h after the last dose) is listed as “approximately 30%”. In addition, in data set [1] (75 mg/kg twice daily for 4 days), the “Tumor concentration” value is given as “approximately 30 times”. Moreover, in data set [1] (oral administration, A20 syngeneic mouse model), the “Decrease of tumor levels at 24 h compared with levels at 4 h” value was 30–50%. Moreover, in data set [4], the “Extrapolated human VSS, times higher than blood volume” value was “approximately 100 times”; the “Extrapolated human VSS, times higher than whole body volume” value is recorded as “approximately 15 times”; the “Extrapolated human VSS, times larger than that reported for idelalisib” value was ~ 28 times. Besides, the Half-life in data set [5] is recorded as 28 h. For the same compound, in data set [6] (dogs, 2 mg/kg IV), the AUCinf came to 1247 ng·h/mL. Further, in [6] (dogs, oral 2 mg/kg versus IV 2 mg/kg), the Bioavailability stood at 79%. In addition, the AUCinf in [6] (fasted dogs, 2 mg/kg orally) was 980 ng·h/mL. Besides, the “Retained in the monolayer” value in data set [7] (1 µM, Caco-2) is recorded as ~ 50%. Also, in [7] (setting [13]), the “Recovery, AB, cell lysate included” value was found to be 79.3 ± 5.5% and the “Recovery, AB, only the experimental solutions measured” value is recorded as 30.3 ± 6.7%. Also, in data set [7] (setting [14]), the “Recovery, BA, cell lysate included” value is on record as 85 ± 8.5% and the “Recovery, BA, only the experimental solutions measured” value is listed as 69 ± 5.6%. Moreover, the “AB Papp” value in [7] (apical to basolateral, Caco-2, pH 7.4, 2 h, 37 °C) is reported as 3.67 ± 1.37 × 10^−6 cm/s. For the same compound, the “BA Papp” value in [7] (basolateral to apical, Caco-2, pH 7.4, 2 h, 37 °C) is recorded as 7.69 ± 1.39 × 10^−6 cm/s. Besides, in data set [8], the “EC90 plasma concentration, inhibition of basophil activation” value is 5 ng/mL. Besides, in [2] (22 °C), the Residence time is ~5 h and 5.3 h. Further, the “kd dissociation rate constant” value in [2] (22 °C, 1:1 binding model) was determined as 5.2e-05 s⁻¹. In addition, in data set [2] (setting [15]), the “Binds more tightly than idelalisib” value is ~ 37 times and the “Remains on-target longer than idelalisib” value is ~ 138 times. The Kd in data set [2] (read-out: KD equilibrium dissociation constant, 22 °C, 1:1 binding model) is 30 pM and 30.3 pM. Besides, the IC50 in data set [9] was 5000 pM. The “Drug in the blood that distributes into blood cells at equilibrium” value in data set [10] is “approximately 60%”. The IC50 in data set [11] is 600 pM.

One may read the Papp as a coefficient for how fast a substance crosses the barrier. Low values mean poor permeation, high ones ready permeation. As a reminder, the Kd is the concentration at which binding is half-saturated. As a reminder, the IC50 is the concentration that gives 50% inhibition.
